Reference: patent US8426437B2, “Pyrroloquinoline derivatives and their use as protein kinases inhibitors” (Pierre Fabre Medicament, priority 2005, dated 2013)
Structures can show the parent of a compound that is named as a salt.

Assays:
Assay type in all cases: biochemical
[1] = target: T1, RET (Homo sapiens, UniProt P07949); assay: Inhibition of RET kinase activity, recombinant RET method (Kinase-Glo); conditions: RET 2 μg/ml, poly-EY4 substrate, 20 μM ATP, two hours at 30° C.
T1 construct: purchased Upstate 14-570MG
Procedure, shortened: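 Recombinant RET at 2 μg/ml in 20 mM MOPS/NaOH pH 7.0, 1 mM EDTA, 5% glycerol, 0.01% Brij35, 0.1% 2-mercaptoethanol, 1 mg/ml BSA; compounds 10 nM–30 μM final.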

[2] = target: ALK (Homo sapiens, UniProt Q9UM73); assay: Inhibition of kinase ALK (PLCγ1-GST substrate, anti-phosphotyrosine ELISA); conditions: ALK 180 ng/ml, 250 μM ATP, 30 minutes at 30° C.
Experimental: Incubation is carried out for 30 minutes at 30° C. with agitation.
The signal is read in luminescent mode using a luminometer.

[3] = target: T2, PIM-1 (Homo sapiens, UniProt P11309); assay: Inhibition of kinase PIM-1 (Kinase-Glo); conditions: PIM-1 0.625 μg/ml, 10 μM ATP, forty minutes at 30° C.
T2 construct: purchased Upstate 14-573
Procedure, shortened: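 PIM-1 (0.625 μg/ml) in MOPS/NaOH pH 7 with Mg acetate was run with 70 μM S6 kinase/Rsk2 peptide and 10 μM ATP, with compound at 10 nM–30 μM final.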

[4] = target: T3, TrkA (Homo sapiens, UniProt P04629); assay: Inhibition of kinase TrkA (Kinase-Glo); conditions: TrkA 4 μg/ml, 30 μM ATP, two hours at 30° C.
T3 construct: purchased Upstate 14-571
Experimental: Protein TrkA (Upstate 14-571; batch #25634U) is incubated at a concentration of 4 μg/ml in a buffer containing 8 mM of MOPS/NaOH pH7, 0.2 mM EDTA, 40 mM MgAc (Sigma #229768), 1 mM DTT (Fluka #43816), NaOV 1 mM, 0.01% Triton Tx100, in the presence of 1 mg/ml of peptide substrate poly-EY (Upstate #P0275), and 30 μM of ATP.
The dilution buffer for TrkA is as follows: 20 mM MOPS/NaOH pH7, 1 mM EDTA, 5% glycerol, 0.01% Brij35, 0.1% 2-mercapto, 1 mg/ml BSA.
(§1) The compound to be tested is first added to the enzyme to give a reaction volume of 50 μl. The dilution of the compounds of the invention is distributed so as to obtain a scale of final concentrations between 10 nM and 30 μM.
(§2) After incubation of the reaction mixture for two hours at 30° C., the level of ATP that remains is assayed using the Kinase-Glo Luminescent Kinase Assay (Promega #V6712) according to the conditions recommended by the supplier. The luminescence induced is read in a plate reader (Envision-Perkin Elmer).

[5] = target: T4, TrkB (Homo sapiens, UniProt Q16620); assay: Inhibition of kinase TrkB (Kinase-Glo); conditions: TrkB 4 μg/ml, 40 μM ATP, two hours at 30° C.
T4 construct: purchased Upstate 14-507
Experimental: Protein TrkB (Upstate 14-507; batch #25578U) is incubated at a concentration of 4 μg/ml in a buffer containing 8 mM of MOPS/NaOH pH7, 0.2 mM EDTA, 40 mM MgAc (Sigma #229768), 1 mM DTT (Fluka #43816), NaOV 1 mM, 25 mM 2-glycerolphosphate (Sigma #G9891), in the presence of 2.5 mg/ml of peptide substrate poly-EY (Upstate #P0275), and 40 μM of ATP.
The dilution buffer for TrkB is as follows: 20 mM MOPS/NaOH pH7, 1 mM EDTA, 5% glycerol, 0.01% Brij35, 0.1% 2-mercapto, 1 mg/ml BSA.
as §1, §2

T2 sequence (P11309 whole entry): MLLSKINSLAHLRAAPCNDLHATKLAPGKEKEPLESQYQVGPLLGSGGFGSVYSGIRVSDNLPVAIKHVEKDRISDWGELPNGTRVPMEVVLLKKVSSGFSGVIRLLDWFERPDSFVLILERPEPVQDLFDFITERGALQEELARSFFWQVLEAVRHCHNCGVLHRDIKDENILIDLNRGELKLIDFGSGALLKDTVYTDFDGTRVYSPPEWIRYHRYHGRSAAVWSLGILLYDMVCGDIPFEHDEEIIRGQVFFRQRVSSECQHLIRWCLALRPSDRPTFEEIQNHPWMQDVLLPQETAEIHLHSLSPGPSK
Sequence of ALK (Q9UM73 19-1620, species assumed): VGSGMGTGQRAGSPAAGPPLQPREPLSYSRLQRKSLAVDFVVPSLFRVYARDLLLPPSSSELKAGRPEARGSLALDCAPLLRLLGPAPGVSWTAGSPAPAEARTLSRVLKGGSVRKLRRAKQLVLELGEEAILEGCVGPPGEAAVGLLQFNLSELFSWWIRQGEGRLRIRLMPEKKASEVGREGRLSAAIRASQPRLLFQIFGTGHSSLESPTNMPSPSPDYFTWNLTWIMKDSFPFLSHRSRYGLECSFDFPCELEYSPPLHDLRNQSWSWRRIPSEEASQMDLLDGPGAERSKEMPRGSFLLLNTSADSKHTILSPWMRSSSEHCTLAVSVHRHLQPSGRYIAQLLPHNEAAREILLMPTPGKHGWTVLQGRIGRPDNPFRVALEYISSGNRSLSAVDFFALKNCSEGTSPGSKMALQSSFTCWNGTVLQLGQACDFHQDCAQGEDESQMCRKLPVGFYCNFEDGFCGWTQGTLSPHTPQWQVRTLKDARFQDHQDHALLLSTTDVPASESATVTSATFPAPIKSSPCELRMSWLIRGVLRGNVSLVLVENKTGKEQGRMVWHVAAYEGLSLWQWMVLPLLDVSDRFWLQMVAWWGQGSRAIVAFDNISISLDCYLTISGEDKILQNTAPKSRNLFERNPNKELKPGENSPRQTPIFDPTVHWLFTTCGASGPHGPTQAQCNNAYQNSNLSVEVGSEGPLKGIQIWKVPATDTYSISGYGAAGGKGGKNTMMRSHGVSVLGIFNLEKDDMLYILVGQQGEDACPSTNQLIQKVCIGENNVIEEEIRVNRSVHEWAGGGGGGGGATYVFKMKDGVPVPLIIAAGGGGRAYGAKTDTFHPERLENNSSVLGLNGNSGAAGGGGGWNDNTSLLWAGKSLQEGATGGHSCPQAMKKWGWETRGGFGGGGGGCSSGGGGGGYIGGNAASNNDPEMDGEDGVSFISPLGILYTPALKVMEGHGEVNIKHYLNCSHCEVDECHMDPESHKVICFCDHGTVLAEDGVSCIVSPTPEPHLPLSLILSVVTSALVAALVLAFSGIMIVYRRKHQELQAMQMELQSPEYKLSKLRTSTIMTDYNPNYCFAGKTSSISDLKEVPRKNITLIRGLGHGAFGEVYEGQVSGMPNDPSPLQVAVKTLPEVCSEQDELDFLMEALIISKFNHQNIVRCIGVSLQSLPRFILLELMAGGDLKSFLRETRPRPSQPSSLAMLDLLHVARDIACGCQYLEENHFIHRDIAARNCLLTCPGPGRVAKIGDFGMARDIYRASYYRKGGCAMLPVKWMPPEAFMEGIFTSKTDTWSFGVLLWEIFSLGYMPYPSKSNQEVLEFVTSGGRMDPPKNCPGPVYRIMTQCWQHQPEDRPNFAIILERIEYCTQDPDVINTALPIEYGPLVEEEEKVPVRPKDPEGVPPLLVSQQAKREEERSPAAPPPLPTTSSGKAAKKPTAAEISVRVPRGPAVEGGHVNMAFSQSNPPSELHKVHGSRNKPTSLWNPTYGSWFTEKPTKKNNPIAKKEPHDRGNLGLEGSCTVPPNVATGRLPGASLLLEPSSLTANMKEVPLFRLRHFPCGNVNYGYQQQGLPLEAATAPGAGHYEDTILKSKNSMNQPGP
T1 sequence (P07949 29-1114): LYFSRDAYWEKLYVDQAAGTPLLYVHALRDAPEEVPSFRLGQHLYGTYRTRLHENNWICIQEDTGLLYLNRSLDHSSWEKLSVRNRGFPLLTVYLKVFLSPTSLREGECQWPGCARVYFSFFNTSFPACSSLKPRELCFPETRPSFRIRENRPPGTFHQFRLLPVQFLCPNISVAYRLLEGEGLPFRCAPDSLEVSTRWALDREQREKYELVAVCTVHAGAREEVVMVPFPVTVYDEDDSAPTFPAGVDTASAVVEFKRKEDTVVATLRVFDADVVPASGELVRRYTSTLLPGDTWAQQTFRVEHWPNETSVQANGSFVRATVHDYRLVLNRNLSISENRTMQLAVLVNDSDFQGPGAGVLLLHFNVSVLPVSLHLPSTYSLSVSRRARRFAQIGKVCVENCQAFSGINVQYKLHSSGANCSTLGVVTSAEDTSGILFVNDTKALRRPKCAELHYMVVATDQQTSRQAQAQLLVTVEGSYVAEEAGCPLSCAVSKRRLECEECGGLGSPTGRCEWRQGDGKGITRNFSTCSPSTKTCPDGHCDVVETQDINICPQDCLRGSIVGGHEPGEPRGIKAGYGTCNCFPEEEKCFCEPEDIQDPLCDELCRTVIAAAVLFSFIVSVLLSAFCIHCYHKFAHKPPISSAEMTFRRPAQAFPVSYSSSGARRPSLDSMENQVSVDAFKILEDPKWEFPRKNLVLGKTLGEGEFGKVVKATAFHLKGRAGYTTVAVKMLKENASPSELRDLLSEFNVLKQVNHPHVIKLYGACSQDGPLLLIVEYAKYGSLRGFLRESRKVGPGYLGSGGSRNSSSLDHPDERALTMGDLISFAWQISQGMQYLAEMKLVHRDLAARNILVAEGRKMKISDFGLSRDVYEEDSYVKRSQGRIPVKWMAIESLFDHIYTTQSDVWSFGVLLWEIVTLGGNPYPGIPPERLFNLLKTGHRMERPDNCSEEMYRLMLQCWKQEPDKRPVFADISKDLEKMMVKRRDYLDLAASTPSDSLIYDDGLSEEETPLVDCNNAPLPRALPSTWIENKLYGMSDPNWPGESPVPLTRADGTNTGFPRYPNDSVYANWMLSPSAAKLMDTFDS
T3 sequence (P04629 33-796): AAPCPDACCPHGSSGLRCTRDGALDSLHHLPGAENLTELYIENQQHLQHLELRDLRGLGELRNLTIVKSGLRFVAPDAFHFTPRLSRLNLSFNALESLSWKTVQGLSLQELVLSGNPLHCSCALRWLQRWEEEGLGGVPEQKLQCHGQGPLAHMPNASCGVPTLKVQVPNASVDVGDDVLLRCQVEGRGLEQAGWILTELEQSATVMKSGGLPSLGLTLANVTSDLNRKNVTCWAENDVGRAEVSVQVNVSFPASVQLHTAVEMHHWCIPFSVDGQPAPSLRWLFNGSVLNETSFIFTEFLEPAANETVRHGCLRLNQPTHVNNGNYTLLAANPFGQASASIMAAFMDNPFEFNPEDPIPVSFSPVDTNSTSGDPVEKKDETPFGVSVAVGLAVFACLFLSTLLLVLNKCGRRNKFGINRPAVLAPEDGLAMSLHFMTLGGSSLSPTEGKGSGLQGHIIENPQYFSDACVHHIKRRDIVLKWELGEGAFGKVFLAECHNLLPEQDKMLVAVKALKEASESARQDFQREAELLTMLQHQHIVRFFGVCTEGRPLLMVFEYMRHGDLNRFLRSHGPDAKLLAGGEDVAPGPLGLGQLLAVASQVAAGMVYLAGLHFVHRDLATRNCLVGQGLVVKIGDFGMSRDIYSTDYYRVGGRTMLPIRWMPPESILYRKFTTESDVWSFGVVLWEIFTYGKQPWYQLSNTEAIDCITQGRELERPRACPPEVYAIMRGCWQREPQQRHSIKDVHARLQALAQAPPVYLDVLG
T4 sequence (Q16620 32-822): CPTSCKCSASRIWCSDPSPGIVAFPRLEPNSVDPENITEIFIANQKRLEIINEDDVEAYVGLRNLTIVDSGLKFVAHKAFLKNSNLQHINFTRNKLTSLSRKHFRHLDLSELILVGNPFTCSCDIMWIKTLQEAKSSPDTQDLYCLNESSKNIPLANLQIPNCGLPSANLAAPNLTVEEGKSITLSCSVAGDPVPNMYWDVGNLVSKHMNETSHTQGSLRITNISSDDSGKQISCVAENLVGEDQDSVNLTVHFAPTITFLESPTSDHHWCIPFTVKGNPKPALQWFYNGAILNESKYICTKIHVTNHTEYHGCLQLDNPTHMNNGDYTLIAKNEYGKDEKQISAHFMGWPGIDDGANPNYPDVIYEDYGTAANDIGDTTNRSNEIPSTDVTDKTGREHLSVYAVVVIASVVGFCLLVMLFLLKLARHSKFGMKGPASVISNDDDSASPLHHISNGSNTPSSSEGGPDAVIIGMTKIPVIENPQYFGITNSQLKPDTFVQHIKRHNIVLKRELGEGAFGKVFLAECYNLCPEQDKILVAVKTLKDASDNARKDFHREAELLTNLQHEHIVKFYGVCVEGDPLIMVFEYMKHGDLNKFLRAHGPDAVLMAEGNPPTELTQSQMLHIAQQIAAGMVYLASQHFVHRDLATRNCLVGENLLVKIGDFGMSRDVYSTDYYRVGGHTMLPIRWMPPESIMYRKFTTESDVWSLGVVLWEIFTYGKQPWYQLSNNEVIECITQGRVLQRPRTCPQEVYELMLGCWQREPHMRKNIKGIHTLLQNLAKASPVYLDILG

With `CCOC(=O)c1c[nH]c2c(=O)[nH]c3ccc(S(=O)(=O)NC[C@H]4CCNC4)cc3c12` [Compound 97, (S)-4-Oxo-8-[(pyrrolidin-3-methyl)-sulfamoyl]-4,5-dihydro-3H-pyrrolo[2,3-c]quinoline-1-ethyl carboxylate] the IC50 [1] was 100 to 1000 nM, the IC50 [2] was 100 to 1000 nM and the IC50 [3] was 10000 to 100000 nM.

`COC(=O)c1c[nH]c2c(=O)[nH]c3ccc(S(=O)(=O)NC4CCCNC4)cc3c12` (centres unmarked) [Compound 112, 4-Oxo-8-(piperidin-3-ylsulfamoyl)-4,5-dihydro-3H-pyrrolo[2,3-c]quinoline-1-methyl carboxylate] gave an IC50 [1] of 1000 to 10000 nM, an IC50 [2] of 100 to 1000 nM and an IC50 [3] of 1000 to 10000 nM.

For `CCOC(=O)c1c[nH]c2c(=O)[nH]c3ccc(S(=O)(=O)NC4CCNCC4)cc3c12` [Compound 91, 4-oxo-8-(piperidin-4-ylsulfamoyl)-4,5-dihydro-3H-pyrrolo[2,3-c]quinoline-1-ethyl carboxylate], the IC50 [1] was 100 to 1000 nM, the IC50 [2] was 100 to 1000 nM and the IC50 [3] was 1000 to 10000 nM.

`CCOC(=O)c1c[nH]c2c(=O)[nH]c3ccc(S(=O)(=O)N4CC5CNCC5C4)cc3c12` (centres unmarked) [Compound 93, 8-(Octahydro-pyrrolo[3,4-c]pyrrole-2-sulfonyl)-4-oxo-4,5-dihydro-3H-pyrrolo[2,3-c]quinoline-1-ethyl carboxylate] showed an IC50 [1] of 100 to 1000 nM, an IC50 [2] of 100 to 1000 nM and an IC50 [3] of 1000 to 10000 nM.

Compound `CCOC(=O)c1c[nH]c2c(=O)[nH]c3ccc(S(=O)(=O)NCCCN(C)C)cc3c12` [Compound 32, 8-(3-Dimethylamino-propylsulfamoyl)-4-oxo-4,5-dihydro-3H-pyrrolo[2,3-c]quinoline-1-ethyl carboxylate] has an IC50 [1] of 100 to 1000 nM, an IC50 [2] of 10000 to 100000 nM and an IC50 [3] of 10000 to 100000 nM.

For `CCOC(=O)c1c[nH]c2c(=O)[nH]c3ccc(-c4csc(Nc5ccccc5)n4)cc3c12` [Compound 271, 4-Oxo-8-(2-phenylamino-thiazol-4-yl)-4,5-dihydro-3H-pyrrolo[2,3-c]quinoline-1-ethyl carboxylate], the IC50 [1] was 100 to 1000 nM, the IC50 [2] was 100 to 1000 nM and the IC50 [3] was 10000 to 100000 nM. For the same compound, the IC50 [4] was 1000 to 10000 nM and the IC50 [5] was 1000 to 10000 nM.

`CCCOC(=O)c1c[nH]c2c(=O)[nH]c3ccc(S(=O)(=O)N(C[C@@H]4CCCN4C)C4CC4)cc3c12` [Compound 145, (S)-8-[Cyclopropyl-(1-methyl-pyrrolidin-2-ylmethyl)sulfamoyl]-4-oxo-4,5-dihydro-3H-pyrrolo[2,3-c]quinoline-1-propyl carboxylate] was tested, and the IC50 [1] was 100 to 1000 nM and the IC50 [2] was 1000 to 10000 nM.

With `C#CCN(C[C@@H]1CCCN1)S(=O)(=O)c1ccc2[nH]c(=O)c3[nH]cc(C(=O)OCCC)c3c2c1` [Compound 150, (S)-4-Oxo-8-(prop-2-ynyl-pyrrolidin-2-ylmethyl-sulfamoyl)-4,5-dihydro-3H-pyrrolo[2,3-c]quinoline-1-propyl carboxylate hydrochloride] the IC50 [1] was under 100 nM and the IC50 [2] was 100 to 1000 nM.

`CCCOC(=O)c1c[nH]c2c(=O)[nH]c3ccc(S(=O)(=O)N(C)C4CN(C(c5ccccc5)c5ccccc5)C4)cc3c12` [Compound 130, 8-[(1-Benzhydryl-azetidin-3-yl)-methyl-sulfamoyl]-4-oxo-4,5-dihydro-3H-pyrrolo[2,3-c]quinoline-1-propyl carboxylate] showed an IC50 [1] of 100 to 1000 nM and an IC50 [2] of 100 to 1000 nM.

For `CCOC(=O)c1c[nH]c2c(=O)[nH]c3ccc(S(=O)(=O)NCCCCN)cc3c12` [Compound 33, 8-(4-Amino-butylsulfamoyl)-4-oxo-4,5-dihydro-3H-pyrrolo[2,3-c]quinoline-1-ethyl carboxylate], the IC50 [1] was 100 to 1000 nM, the IC50 [2] was 1000 to 10000 nM and the IC50 [3] was 10000 to 100000 nM.

Compound `CCCOC(=O)c1c[nH]c2c(=O)[nH]c3ccc(S(=O)(=O)N(CC(C)(C)NC)C4CC4)cc3c12` [Compound 141, 8-[Cyclopropyl-(2-methyl-2-methylamino-propyl)-sulfamoyl]-4-oxo-4,5-dihydro-3H-pyrrolo[2,3-c]quinoline-1-propyl carboxylate hydrochloride] has an IC50 [1] of 100 to 1000 nM and an IC50 [2] of 100 to 1000 nM.

`CCCOC(=O)c1c[nH]c2c(=O)[nH]c3ccc(S(=O)(=O)N(C[C@@H]4CCCN4)C4CC4)cc3c12` [Compound 144, (S)-8-(Cyclopropyl-pyrrolidin-2-ylmethyl-sulfamoyl)-4-oxo-4,5-dihydro-3H-pyrrolo[2,3-c]quinoline-1-propyl carboxylate hydrochloride] gave an IC50 [1] of under 100 nM and an IC50 [2] of 100 to 1000 nM.

In the case of `CCOC(=O)c1c[nH]c2c(=O)[nH]c3ccc(S(=O)(=O)NC4CN5CCC4CC5)cc3c12` (centres unmarked) [Compound 94, 8-(1-Azabicyclo[2.2.2]oct-3-ylsulfamoyl)-4-oxo-4,5-dihydro-3H-pyrrolo[2,3-c]quinoline-1-ethyl carboxylate], the IC50 [1] is reported as 100 to 1000 nM and the IC50 [2] is reported as 100 to 1000 nM.

For `COC(=O)c1c[nH]c2c(=O)[nH]c3ccc(S(=O)(=O)NC4CCNCC4)cc3c12` [Compound 113, 4-Oxo-8-(piperidin-4-ylsulfamoyl)-4,5-dihydro-3H-pyrrolo[2,3-c]quinoline-1-methyl carboxylate], the IC50 [1] was 100 to 1000 nM, the IC50 [2] was 1000 to 10000 nM and the IC50 [3] was 1000 to 10000 nM.
